Activity calls are given as the source filed them. No cut-off for these calls is given here.
Biological target: Transcription factor p65 (Mus musculus) (UniProt Q04207)
Experiment: Inhibition of TNFalpha/IL-1beta-induced NFkB p65 translocation from cytosol to nucleus in mouse MIN6 cells at 50 uM after 30 mins by immunofluorescence based high content imaging analysis
Assay type: cell-based

Chain of Transcription factor p65 (Mus musculus) (Q04207 whole entry): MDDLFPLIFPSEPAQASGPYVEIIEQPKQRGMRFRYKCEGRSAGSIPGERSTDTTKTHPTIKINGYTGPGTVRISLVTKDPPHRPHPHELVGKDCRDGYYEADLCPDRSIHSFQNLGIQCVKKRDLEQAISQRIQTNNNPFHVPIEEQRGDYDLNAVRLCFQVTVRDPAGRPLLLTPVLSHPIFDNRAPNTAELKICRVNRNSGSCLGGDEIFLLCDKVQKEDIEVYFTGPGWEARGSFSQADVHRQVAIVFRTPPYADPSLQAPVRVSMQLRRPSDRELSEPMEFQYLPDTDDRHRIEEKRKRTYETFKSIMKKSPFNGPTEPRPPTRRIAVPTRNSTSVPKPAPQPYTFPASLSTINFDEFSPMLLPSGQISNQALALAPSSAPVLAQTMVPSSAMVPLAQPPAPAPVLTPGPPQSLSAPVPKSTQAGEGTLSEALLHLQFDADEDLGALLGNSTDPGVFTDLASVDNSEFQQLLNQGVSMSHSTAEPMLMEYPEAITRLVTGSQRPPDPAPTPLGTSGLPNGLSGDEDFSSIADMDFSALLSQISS

COc1cc(O)cc(O)c1C(=O)/C=C/c1ccc(O)cc1
inhibition: Active

From ChEMBL document CHEMBL4330156, “Amides and Flavonoids from the Fruit and Leaf Extracts of Melodorum siamensis” (J Nat Prod, 2019)
